Results on 38 compounds are retold here after patent US9955691B2, “Macrocyclic picolinamides as fungicides” (DOW AGROSCIENCES LLC, priority 2014, dated 2018).

Where two headings read alike, the source gives them in different places. Where only a bound is given, the exact number is not on record here.

Usually melting point stands for the temperature of the solid-liquid transition.

The subject of series [1] is Mycosphaerella graminicola; Anamorph: Septoria tritici. Description: Fungicidal activity: Leaf Blotch of Wheat (SEPTTR). It counts as in vivo. The following applies: Zymoseptoria tritici, High Volume (100 ppm), wheat leaf blotch. A digest of the protocol: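 Compounds were dissolved in acetone, diluted with nine volumes of water containing 110 ppm Triton X-100, and sprayed to run-off on first-leaf Yuma wheat seedlings inoculated with Septoria tritici spores before or after treatment. Plants were held in a dew chamber, then a 20° C. greenhouse. Percent control was derived from disease severity relative to untreated plants.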

The subject of another series is Puccinia triticina. Description: Fungicidal activity: Wheat Brown Rust (PUCCRT). It counts as in vivo. The note with it: High Volume (100 ppm). The method in brief: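 Percent control of brown rust was derived from 0-100% severity on treated versus untreated first leaves. Yuma wheat seedlings were spray-treated to run-off (acetone/water, Triton X-100) and inoculated with P. triticina spores before or after treatment, then held overnight in dark dew at 22° C and moved to a 24° C greenhouse.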

[2] abbreviates: 24 h, 1 Day Protectant, read-out: SEPTTR 1 DP disease control.
Setting [3] is: 72 h, 3 Day Curative, read-out: SEPTTR 3 DC disease control.
The mark [4] stands for this setting: 24 h, 1 Day Protectant, read-out: PUCCRT 1 DP disease control.
[5] abbreviates: 72 h, 3 Day Curative, read-out: PUCCRT 3 DC disease control.

Regarding `C[C@H]1OC(=O)[C@@H](N)COC[C@H](Cc2ccccc2)[C@H]1Cc1ccccc1.Cl`, the melting point lay within 206 to 211 °C.
Still for that read-out and setting: the figure for `C[C@@H]1OC(=O)[C@@H](N)COC[C@H](CCc2ccccc2)[C@H]1CCc1ccccc1.Cl` is 184 °C (dec.); for `C=C[C@@H]1[C@@H](Cc2ccccc2)COC[C@H](N)C(=O)O[C@H]1C.Cl` it is 208 °C (dec.); for `C[C@@H]1OC(=O)[C@@H](N)COC[C@H](CC2CCCCC2)[C@H]1CC1CCCCC1.Cl` it is 191 to 197 °C (dec.).
Same read-out and setting: the figure for `C=C(C)CCC[C@@H]1[C@@H](Cc2ccccc2)COC[C@H](N)C(=O)O[C@H]1C.Cl` is 184 to 187 °C (dec.).
Same read-out and setting: the figure for `CC(C)COC[C@@H]1[C@@H](Cc2ccccc2)COC[C@H](N)C(=O)O[C@H]1C.Cl` is 196 to 199 °C; for `COc1cccc(C[C@H]2COC[C@H](N)C(=O)O[C@@H](C)[C@@H]2Cc2cccc(OC)c2)c1.Cl` it is 181 to 186 °C (dec.).
Take `C[C@@H]1OC(=O)[C@@H](N)COC[C@H](Cc2ccccc2)[C@H]1Cc1ccccc1.Cl`: the melting point lay in the range of 196 to 202 °C.
Same read-out and setting: the figure for `C[C@@H]1OC(=O)[C@@H](N)COC[C@H](CC2CCCC2)[C@H]1CC1CCCC1.Cl` is 164 to 167 °C; for `C[C@@H]1OC(=O)[C@@H](N)COC[C@H](Cc2ccc(Cl)cc2)[C@H]1Cc1ccc(OC(F)(F)F)cc1.Cl` it is 144 to 148 °C.
The same measure, in the same setting: the figure for `C[C@@H]1OC(=O)[C@@H](N)COC[C@H](Cc2ccc(C(F)(F)F)cc2)[C@H]1Cc1ccc(OC(F)(F)F)cc1.Cl` is 172 to 175 °C.
Same read-out and setting: the figure for `C[C@@H]1OC(=O)[C@@H](N)COC[C@H](CCCc2ccccc2)[C@H]1CCc1ccccc1.Cl` is 147 to 151 °C.
On to `C[C@@H]1OC(=O)[C@@H](N)COC[C@H](CC2CC2)[C@H]1Cc1ccccc1.Cl`, for which the melting point was 189 to 195 °C.
`CC(C)C[C@@H]1[C@@H](Cc2ccc(C(F)(F)F)cc2)COC[C@H](N)C(=O)O[C@H]1C.Cl` had a melting point of 163 to 168 °C.
On the same count and under the same terms, the figure for `C[C@@H]1OC(=O)[C@@H](N)COC[C@H](Cc2ccc(Cl)cc2)[C@H]1C1CCCC1.Cl` is 200 to 203 °C; for `CC(C)CC[C@H]1COC[C@H](N)C(=O)O[C@@H](C)[C@@H]1C1CCCC1.Cl` it is 149 to 153 °C.
The same measure, in the same setting: the figure for `C[C@@H]1OC(=O)[C@@H](N)COC[C@H](Cc2ccccc2)[C@H]1COc1ccccc1.Cl` is 209 to 214 °C; for `CCC[C@H]1COC[C@H](N)C(=O)O[C@@H](C)[C@@H]1Cc1ccc(F)cc1.Cl` it is 184 to 187 °C; for `C[C@@H]1OC(=O)[C@@H](NC(=O)OC(C)(C)C)COC[C@H](Cc2ccccc2)[C@H]1Cc1ccccc1` [Cmpd. 203, tert-butyl ((3S,7R,8R,9S)-7,8-dibenzyl-9-methyl-2-oxo-1,5-dioxonan-3-yl)carbamate] it is 41 to 45 °C.
Consider `COc1ccnc(C(=O)N[C@H]2COC[C@H](Cc3ccccc3)[C@@H](CC(C)C)[C@H](C)OC2=O)c1O` [compound 125], for which the pest or weed control at 100 µg/mL in series [1] (setting [2]) was less than 70%; in series [1] (setting [3]), less than 70%; in the series with Puccinia triticina (setting [4]) it was more than 70%; in the series with Puccinia triticina (setting [5]) it was less than 70%.
As for `CCC[C@H]1COC[C@H](NC(=O)c2nccc(OC)c2O)C(=O)O[C@@H](C)[C@@H]1Cc1ccccc1` [compound 126], the pest or weed control at 100 µg/mL (in series [1] (setting [2]); in series [1] (setting [3]); with Puccinia triticina (setting [4]); in the series with Puccinia triticina (setting [5])) was more than 70% throughout.
`COc1ccnc(C(=O)N[C@H]2COC[C@H](CC3CCCC3)[C@@H](CC3CCCC3)[C@H](C)OC2=O)c1O` [compound 127]: the pest or weed control at 100 µg/mL (in series [1] (setting [2]); in series [1] (setting [3]); in the series on Puccinia triticina (setting [4]); in the series with Puccinia triticina (setting [5])) was more than 70% in each case.
Turning to `COc1ccnc(C(=O)N[C@H]2COC[C@H](Cc3ccccc3)[C@@H](CCc3ccccc3)[C@H](C)OC2=O)c1O` [compound 128], the pest or weed control at 100 µg/mL in series [1] (setting [2]) is more than 70%; in series [1] (setting [3]), more than 70%; in the series with Puccinia triticina (setting [4]), more than 70%; with Puccinia triticina (setting [5]) it was less than 70%.
As to `COc1ccnc(C(=O)N[C@H]2COC[C@H](CCC(C)C)[C@@H](CCc3ccccc3)[C@H](C)OC2=O)c1O` [compound 129], the pest or weed control at 100 µg/mL (in series [1] (setting [2]); in series [1] (setting [3]); in the series with Puccinia triticina (setting [4]); in the series with Puccinia triticina (setting [5])) was more than 70% in each case.
Consider `COc1ccnc(C(=O)N[C@H]2COC[C@H](CCC(C)C)[C@@H](Cc3ccccc3)[C@H](C)OC2=O)c1O` [compound 133], for which the pest or weed control at 100 µg/mL (in series [1] (setting [2]); in series [1] (setting [3]); in the series with Puccinia triticina (setting [4]); in the series with Puccinia triticina (setting [5])) was more than 70% throughout.
As for `COc1ccnc(C(=O)N[C@H]2COC[C@H](Cc3ccc(Cl)cc3)[C@@H](Cc3ccccc3)[C@H](C)OC2=O)c1O` [compound 135], the pest or weed control at 100 µg/mL in series [1] (setting [2]) was more than 70%; in series [1] (setting [3]), less than 70%; with Puccinia triticina (setting [4]) it was more than 70%; in the series with Puccinia triticina (setting [5]), less than 70%.
For `COc1ccnc(C(=O)N[C@H]2COC[C@H](Cc3ccc(C(F)(F)F)cc3)[C@@H](Cc3ccccc3)[C@H](C)OC2=O)c1O` [compound 136], the pest or weed control at 100 µg/mL in series [1] (setting [2]) is more than 70%; in series [1] (setting [3]) it was less than 70%; in the series with Puccinia triticina (setting [4]), more than 70%; with Puccinia triticina (setting [5]), more than 70%.
On to `COc1ccnc(C(=O)N[C@H]2COC[C@H](Cc3ccc(C(F)(F)F)cc3)[C@@H](Cc3ccc(OC(F)(F)F)cc3)[C@H](C)OC2=O)c1O` [compound 138], for which the pest or weed control at 100 µg/mL (in series [1] (setting [2]); in series [1] (setting [3]); in the series with Puccinia triticina (setting [4]); with Puccinia triticina (setting [5])) was less than 70% in each case.
For the compound `CCC[C@H]1COC[C@H](NC(=O)c2nccc(OC)c2O)C(=O)O[C@@H](C)[C@@H]1CC(C)C` [compound 142], the pest or weed control at 100 µg/mL (in series [1] (setting [2]); in series [1] (setting [3]); in the series with Puccinia triticina (setting [4]); in the series with Puccinia triticina (setting [5])) was less than 70% throughout.
`COc1ccnc(C(=O)N[C@H]2COC[C@H](Cc3ccccc3)[C@@H](Cc3ccc(F)cc3)[C@H](C)OC2=O)c1O` [compound 143]: the pest or weed control at 100 µg/mL in series [1] (setting [2]) was more than 70%; in series [1] (setting [3]) it was less than 70%; with Puccinia triticina (setting [4]), more than 70%; in the series with Puccinia triticina (setting [5]) it was less than 70%.
In the case of `COc1ccnc(C(=O)N[C@H]2COC[C@H](CCCc3ccccc3)[C@@H](CC(C)C)[C@H](C)OC2=O)c1O` [compound 144], the pest or weed control at 100 µg/mL (in series [1] (setting [2]); in series [1] (setting [3]); in the series with Puccinia triticina (setting [4]); in the series with Puccinia triticina (setting [5])) was more than 70% throughout.
On to `COc1ccnc(C(=O)N[C@H]2COC[C@H](Cc3ccc(Cl)cc3)[C@@H](CC(C)C)[C@H](C)OC2=O)c1O` [compound 145], for which the pest or weed control at 100 µg/mL (in series [1] (setting [2]); in series [1] (setting [3]); in the series on Puccinia triticina (setting [4]); in the series on Puccinia triticina (setting [5])) was more than 70% throughout.
In the case of `COc1ccnc(C(=O)N[C@H]2COC[C@H](CCCc3ccccc3)[C@@H](Cc3ccc(OC(F)(F)F)cc3)[C@H](C)OC2=O)c1O` [compound 146], the pest or weed control at 100 µg/mL (in series [1] (setting [2]); in series [1] (setting [3]); with Puccinia triticina (setting [4]); in the series with Puccinia triticina (setting [5])) was less than 70% each time.
Consider `COc1ccnc(C(=O)N[C@H]2COC[C@H](Cc3ccc(C(F)(F)F)cc3)[C@@H](Cc3ccc(F)cc3)[C@H](C)OC2=O)c1O` [compound 147], for which the pest or weed control at 100 µg/mL in series [1] (setting [2]) was more than 70%; in series [1] (setting [3]), less than 70%; in the series with Puccinia triticina (setting [4]), more than 70%; in the series on Puccinia triticina (setting [5]), less than 70%.
`COc1ccnc(C(=O)N[C@H]2COC[C@H](Cc3ccccc3)[C@@H](CCC(C)C)[C@H](C)OC2=O)c1O` [compound 148]: the pest or weed control at 100 µg/mL in series [1] (setting [2]) is more than 70%; in series [1] (setting [3]), more than 70%; in the series on Puccinia triticina (setting [4]), less than 70%; with Puccinia triticina (setting [5]), less than 70%.
With `CCC[C@H]1COC[C@H](NC(=O)c2nccc(OC)c2O)C(=O)O[C@@H](C)[C@@H]1c1ccccc1` [compound 152], the pest or weed control at 100 µg/mL (in series [1] (setting [2]); in series [1] (setting [3]); with Puccinia triticina (setting [4]); with Puccinia triticina (setting [5])) was more than 70% in each case.
For the compound `COc1ccnc(C(=O)N[C@H]2COC[C@H](CC3CC3)[C@@H](Cc3ccc(F)cc3)[C@H](C)OC2=O)c1O` [compound 153], the pest or weed control at 100 µg/mL (in series [1] (setting [2]); in series [1] (setting [3]); in the series on Puccinia triticina (setting [4]); in the series on Puccinia triticina (setting [5])) was more than 70% each time.
As for `COc1ccnc(C(=O)N[C@H]2COC[C@H](CC3CC3)[C@@H](c3ccccc3)[C@H](C)OC2=O)c1O` [compound 154], the pest or weed control at 100 µg/mL (in series [1] (setting [2]); in series [1] (setting [3]); with Puccinia triticina (setting [4]); in the series on Puccinia triticina (setting [5])) was more than 70% each time.
